From PMC2730762 (Biochemistry, 2009)
Where a SMILES comes first, the peptide text is derived from it. [ ]: non-standard residue; d: D form. The star is where a group is joined. Sta = CC(C)C[C@H](N)[C@@H](O)CC(=O)O; Isovaleryl = CC(C)CC(=O)*

Experiments:
PfPM1 = PfPM1 (Plasmodium falciparum, UniProt Q7KQM4); test: biochemical
[1] = system: cultured P. falciparum parasites; conditions: cited from earlier work
[2] = biological target: naturally-occurring PfPM1; conditions: cited from earlier work

Sequence of PfPM1 (Q7KQM4 124-452): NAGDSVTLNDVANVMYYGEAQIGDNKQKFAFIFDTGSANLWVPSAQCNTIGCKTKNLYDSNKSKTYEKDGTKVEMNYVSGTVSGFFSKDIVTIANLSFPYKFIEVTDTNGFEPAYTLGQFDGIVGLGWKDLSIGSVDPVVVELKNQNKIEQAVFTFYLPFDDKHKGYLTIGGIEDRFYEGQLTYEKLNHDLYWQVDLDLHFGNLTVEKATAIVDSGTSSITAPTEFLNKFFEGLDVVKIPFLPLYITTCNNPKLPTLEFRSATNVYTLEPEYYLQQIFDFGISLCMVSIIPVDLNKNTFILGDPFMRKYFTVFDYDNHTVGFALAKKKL

In the case of `CC(C)CC(=O)N[C@H](C(=O)N[C@H](C(=O)N[C@@H](CC(C)C)[C@@H](O)CC(=O)N[C@@H](C)C(=O)N[C@@H](CC(C)C)[C@@H](O)CC(=O)O)C(C)C)C(C)C` [pepstatin A] (Isovaleryl-VV[Sta]A[Sta]-OH), the Ki (PfPM1) is listed as 1.4 ± 0.2 nM, the “killing of cultured P. falciparum parasites” value [1] is listed as “kill cultured P. falciparum parasites” and the Ki [2] is listed as 0.7 nM.
